Reference: patent US12552766B2, “Pesticidally active azole amide compounds” (SYNGENTA CROP PROTECTION AG, priority 2019, dated 2026)

Legend:
Assay type in all cases: in vivo
[1] = system: Plutella xylostella (Diamond Back Moth); assay: Example B5: Plutella xylostella, artificial diet, 24-well; conditions: 192 h, application rate of 200 ppm, eggs, 8 days after infestation, read-out: control in at least one of the two categories (mortality or growth inhibition)
Protocol: 24-well microtiter plates with artificial diet were treated with aqueous test solutions prepared from 10′000 ppm DMSO stock solutions by pipetting. After drying, Plutella eggs were pipetted through a plastic stencil onto a gel blotting paper and the plate was closed with it. The samples were assessed for mortality and growth inhibition in comparison to untreated samples 8 days after infestation.

[2] = system: Myzus persicae (Green Peach Aphid); assay: Example B6: Myzus persicae, feeding/contact activity; conditions: 144 h, application rate of 200 ppm, mixed ages, 6 days after infestation
Protocol: Sunflower leaf discs were placed onto agar in a 24-well microtiter plate and sprayed with aqueous test solutions prepared from 10′000 ppm DMSO stock solutions. After drying, the leaf discs were infested with an aphid population of mixed ages. The samples were assessed for mortality 6 days after infestation.

[3] = system: Plutella xylostella (Diamondback Moth); assay: Example B13: Plutella xylostella, artificial diet, 96-well; conditions: 216 h, application rate of 500 ppm, eggs/L1 larvae, 9 days after infestation
Protocol: 96-well microtiter plates containing artificial diet were treated with aqueous test solutions, prepared from 10′000 ppm DMSO stock solutions, by a liquid handling robot. After drying, eggs (˜30 per well) were infested onto a netted lid which was suspended above the diet. The eggs hatch and L1 larvae move down to the diet. The samples were assessed for mortality 9 days after infestation.

[4] = system: Spodoptera littoralis (Egyptian Cotton Leaf Worm); assay: Example B9: Spodoptera littoralis, spray on cotton leaf discs; conditions: foliar, 72 h, application rate of 200 ppm, L1 larvae, 3 days after infestation, read-out: control in at least one of the three categories (mortality, anti-feedant effect, or growth inhibition)
Procedure, shortened: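 Cotton leaf discs on agar were sprayed with aqueous test solutions made from 10′000 ppm DMSO stocks, dried, then infested with five L1 larvae. Mortality, anti-feeding effect and growth inhibition were scored against untreated discs 3 days after infestation; control means any category exceeds untreated.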

[5] = system: Chilo suppressalis (Striped Rice Stemborer); assay: Example B4: Chilo suppressalis, artificial diet; conditions: 144 h, application rate of 200 ppm, L2 larvae, 6 days after infestation, read-out: control in at least one of the three categories (mortality, anti-feedant effect, or growth inhibition)
Procedure, shortened: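 Scoring covers mortality, anti-feedant effect and growth inhibition at 6 days post-infestation, relative to untreated diet, with activity defined as at least one category above untreated. Test solutions were aqueous, made from 10'000 ppm DMSO stocks, and applied to artificial diet before drying and infestation with L2 larvae.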

[6] = system: Diabrotica Balteata (Corn Root Worm); assay: Example B1: Diabrotica balteata, spray on maize sprouts; conditions: 96 h, application rate of 200 ppm, L2 larvae, 4 days after infestation, read-out: control in at least one of the two categories (mortality or growth inhibition)
Procedure, shortened: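 Larvae at L2 stage, 6 to 10 per well, feed on dried, spray-treated maize sprouts set on agar. Evaluation after 4 days compares mortality and growth inhibition with untreated samples.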

[7] = system: Euschistus heros (Neotropical Brown Stink Bug); assay: Example B2: Euschistus heros, spray on soybean leaves; conditions: 120 h, application rate of 200 ppm, N2 nymphs, 5 days after infestation, read-out: control in at least one of the two categories (mortality or growth inhibition)
Protocol: Soybean leaves on agar in 24-well microtiter plates were sprayed with aqueous test solutions prepared from 10′000 ppm DMSO stock solutions. After drying the leaves were infested with N2 nymphs. The samples were assessed for mortality and growth inhibition in comparison to untreated samples 5 days after infestation.

[8] = system: Tetranychus urticae (Two-Spotted Spider Mite); assay: Example B14: Tetranychus urticae, feeding/contact activity; conditions: 192 h
Protocol: Bean leaf discs on agar in 24-well microtiter plates were sprayed with aqueous test solutions prepared from 10′000 ppm DMSO stock solutions. After drying the leaf discs were infested with a mite population of mixed ages. The samples were assessed for mortality on mixed population (mobile stages) 8 days after infestation.

[9] = system: Spodoptera littoralis (Egyptian Cotton Leaf Worm); assay: Example B10: Spodoptera littoralis, uptake by lettuce roots from agar; conditions: 144 h, test rate of 12.5 ppm, eggs, 6 days after infestation, read-out: control in at least one of the three categories (mortality, anti-feedant, or growth inhibition)
Source text: Test compounds were applied by pipette from 10′000 ppm DMSO stock solutions into 24-well plates and mixed with agar. Lettuce seeds were placed onto the agar and the multi well plate was closed by another plate which contained also agar. After 7 days the compound was absorbed by the roots and the lettuce grew into the lid plate. The lettuce leaves were then cut off into the lid plate. Spodoptera eggs were pipetted through a plastic stencil onto a humid gel blotting paper and the lid plate was closed with it. The samples were assessed for mortality, anti-feedant effect and growth inhibition in comparison to untreated samples 6 days after infestation.

[10] = system: Myzus persicae (Green Peach Aphid); assay: Example B12: Myzus persicae, sucrose solution, 96-well; conditions: 120 h, application rate of 50 ppm, 5 days after infestation
Protocol: Test compounds prepared from 10′000 ppm DMSO stock solutions were applied by a liquid handling robot into 96-well microtiter plates and mixed with a sucrose solution. Parafilm was stretched over the 96-well microtiter plate and a plastic stencil with 96 holes was placed onto the plate. Aphids were sieved into the wells directly onto the Parafilm. The infested plates were closed with a gel blotting card and a second plastic stencil and then turned upside down. The samples were assessed for mortality 5 days after infestation.

CC(NC(=O)c1cc(OCC(F)F)cc(C(F)(F)F)c1)c1nc(Br)nn1-c1ccc(OCC(F)(F)F)cn1 (centres unmarked) [Compound P55, N-[1-[5-bromo-2-[5-(2,2,2-trifluoroethoxy)-2-pyridyl]-1,2,4-triazol-3-yl]ethyl]-3-(2,2-difluoroethoxy)-5-(trifluoromethyl) benzamide]
≥ 80%: percent control (mortality or growth inhibition) at 200 ppm [1] | mortality at 200 ppm [2]

CC(NC(=O)c1cc(C(F)F)cc(C(F)(F)F)c1)c1nc(Br)nn1-c1ccc(OCC(F)F)cn1 (centres unmarked) [Compound P52, N-[1-[5-bromo-2-[5-(2,2-difluoroethoxy)-2-pyridyl]-1,2,4-triazol-3-yl]ethyl]-3-(difluoromethyl)-5-(trifluoromethyl) benzamide]
≥ 80%: mortality at 500 ppm [3] | percent control (mortality or growth inhibition) at 200 ppm [1] | percent control (mortality, anti-feedant effect or growth inhibition) at 200 ppm [4] | percent control (mortality, anti-feedant effect or growth inhibition) at 200 ppm [5] | percent control (mortality or growth inhibition) at 200 ppm [6] | percent control (mortality or growth inhibition) at 200 ppm [7]

CC(NC(=O)c1cc(C(F)F)cc(C(F)(F)F)c1)c1nc(Br)nn1-c1ncc(OCC(F)F)cn1 (centres unmarked) [Compound P40, N-[1-[5-bromo-2-[5-(2,2-difluoroethoxy)pyrimidin-2-yl]-1,2,4-triazol-3-yl]ethyl]-3-(difluoromethyl)-5-(trifluoromethyl) benzamide]
≥ 80%: mortality at 500 ppm [3] | percent control (mortality or growth inhibition) at 200 ppm [1] | percent control (mortality, anti-feedant effect or growth inhibition) at 200 ppm [4] | percent control (mortality, anti-feedant effect or growth inhibition) at 200 ppm [5] | percent control (mortality or growth inhibition) at 200 ppm [6] | percent control (mortality or growth inhibition) at 200 ppm [7]

CC(NC(=O)c1cc(Br)cc(C(F)(F)F)c1)c1nc(Br)nn1-c1ccc(OCC(F)F)cn1 (centres unmarked) [Compound P35, 3-bromo-N-[1-[5-bromo-2-[5-(2,2-difluoroethoxy)-2-pyridyl]-1,2,4-triazol-3-yl]ethyl]-5-(trifluoromethyl) benzamide]
≥ 80%: mortality at 500 ppm [3] | percent control (mortality or growth inhibition) at 200 ppm [1] | percent control (mortality, anti-feedant effect or growth inhibition) at 200 ppm [4] | mortality at 200 ppm [2] | percent control (mortality, anti-feedant effect or growth inhibition) at 200 ppm [5] | percent control (mortality or growth inhibition) at 200 ppm [6]

CC(NC(=O)c1cc(OC(F)F)cc(C(F)(F)F)c1)c1nc(Br)nn1-c1ccc(OCC(F)F)cn1 (centres unmarked) [Compound P16, N-[1-[5-bromo-2-[5-(2,2-difluoroethoxy)-2-pyridyl]-1,2,4-triazol-3-yl]ethyl]-3-(difluoromethoxy)-5-(trifluoromethyl) benzamide]
≥ 80%: mortality at 500 ppm [3] | percent control (mortality or growth inhibition) at 200 ppm [1] | percent control (mortality, anti-feedant effect or growth inhibition) at 200 ppm [4] | mortality at 200 ppm [8] | percent control (mortality, anti-feedant effect or growth inhibition) at 200 ppm [5] | percent control (mortality or growth inhibition) at 200 ppm [6]

CC(c1nc(Br)nn1-c1ccc(C#N)cn1)N(C)C(=O)c1cc(C(F)(F)F)cc(C(F)(F)F)c1 (centres unmarked) [Compound P12, N-[1-[5-bromo-2-(5-cyano-2-pyridyl)-1,2,4-triazol-3-yl]ethyl]-N-methyl-3,5-bis(trifluoromethyl) benzamide]
≥ 80%: mortality at 500 ppm [3] | percent control (mortality or growth inhibition) at 200 ppm [1] | percent control (mortality, anti-feedant effect or growth inhibition) at 200 ppm [4] | percent control (mortality, anti-feedant effect or growth inhibition) at 200 ppm [5] | percent control (mortality or growth inhibition) at 200 ppm [6] | percent control (mortality or growth inhibition) at 200 ppm [7] | percent control (mortality, anti-feedant effect or growth inhibition) at 12.5 ppm [9]

CC(NC(=O)c1cc(OCC(F)F)cc(C(F)(F)F)c1)c1nc(Br)nn1-c1ncc(OCC(F)F)cn1 (centres unmarked) [Compound P47, N-[1-[5-bromo-2-[5-(2,2-difluoroethoxy)pyrimidin-2-yl]-1,2,4-triazol-3-yl]ethyl]-3-(2,2-difluoroethoxy)-5-(trifluoromethyl) benzamide]
≥ 80%: mortality at 500 ppm [3] | percent control (mortality or growth inhibition) at 200 ppm [1] | percent control (mortality, anti-feedant effect or growth inhibition) at 200 ppm [4] | percent control (mortality, anti-feedant effect or growth inhibition) at 200 ppm [5] | mortality at 50 ppm [10]

CC(NC(=O)c1cc(Cl)cc(C(F)(F)F)c1)c1nc(Br)nn1-c1ncc(OCC(F)(F)F)cn1 (centres unmarked) [Compound P43, N-[1-[5-bromo-2-[5-(2,2,2-trifluoroethoxy)pyrimidin-2-yl]-1,2,4-triazol-3-yl]ethyl]-3-chloro-5-(trifluoromethyl) benzamide]
≥ 80%: mortality at 500 ppm [3] | percent control (mortality or growth inhibition) at 200 ppm [1] | percent control (mortality, anti-feedant effect or growth inhibition) at 200 ppm [4] | percent control (mortality, anti-feedant effect or growth inhibition) at 200 ppm [5] | mortality at 50 ppm [10] | percent control (mortality or growth inhibition) at 200 ppm [6]

CC(NC(=O)c1cc(OC(F)F)cc(C(F)(F)F)c1)c1nc(Br)nn1-c1ncc(OCC(F)F)cn1 (centres unmarked) [Compound P23, N-[1-[5-bromo-2-[5-(2,2-difluoroethoxy)pyrimidin-2-yl]-1,2,4-triazol-3-yl]ethyl]-3-(difluoromethoxy)-5-(trifluoromethyl)be nzamide]
≥ 80%: mortality at 500 ppm [3] | percent control (mortality or growth inhibition) at 200 ppm [1] | percent control (mortality, anti-feedant effect or growth inhibition) at 200 ppm [4] | percent control (mortality, anti-feedant effect or growth inhibition) at 200 ppm [5] | mortality at 50 ppm [10] | percent control (mortality or growth inhibition) at 200 ppm [6]
